# What was measured:
# Assay type in all cases: in vivo
# dd-strain male mice = test: Acute Toxicity Test (minimum lethal dose); conditions: three mice per group, mortality observed seven days after administration
# Experimental: A test compound was orally or intraperitoneally administered to groups of dd-strain male mice weighing 20 ± 1 g, each group consisting of three mice. […] The MLD was >1000 mg/kg for oral administration of Compound 10 and was >100 mg/kg for intraperitoneal administration of Compound 10.
# Masugi Nephritis = test: Effect on Increase of Albumin Excretion in Masugi Nephritis; conditions: ddY-strain male mice, 1 mg/kg orally once a day from the previous immunization, 24 hr urine four weeks after second NT injection, mean ± standard error, n=11; control group 134 ± 9, normal group 85 ± 5
# Experimental: Mouse nephrotoxin (hereinafter referred to as NT) was prepared according to the method of Ito, et al. [The Japanese Journal of Nephrology, 23, 25-36 (1981)]. That is, glomerular basement membrane (hereinafter referred to as GBM) was isolated from mouse kidney and digested with trypsin (Sigma). The digested GBM was subjected to ultracentrifugation under cooling, and the supernatant was dialyzed against distilled water, followed by lyophilization. The lyophile product was intracutaneously injected as an antigen into four foot pads of a rabbit together with Freund's complete adjuvant (Iatron; hereinafter referred to as FCA) once a week for 4 weeks for immunization. The whole blood was drawn from the immunized rabbit, and serum was separated and inactivated at 56°C for 30 minutes to prepare NT.
# In this test, ddY-strain male mice weighing 29-36 g were used. For previous immunization, 0.25 ml of an FCA emulsion containing 0.25 mg of rabbit immunoglobulin-globulin (IgG, Sigma) was intraperitoneally injected into mice. Nephritis was induced by intravenous injection of 0.075 ml of NT through the tail vein 4 and 11 days after the previous immunization. […] The supernatant was analyzed for urinary albumin content using an autoanalyzer (Olympus). […]
# The results are shown in Table 5 as the means ± standard error of each group consisting of 11 mice. Statistical significance was evaluated by Student's t-test.
# Diabetic Nephropathy = test: Effect on Increase of Albumin Excretion in Diabetic Nephropathy (streptozotocin-induced); conditions: STZ-diabetic ddY-strain male mice, 24 hr urine twelve weeks after STZ, mean ± standard error, control group 333 ± 30, normal group 80 ± 3
# Experimental: In this test, ddY-strain male mice weighing 25-28 g were used. Diabetes was induced according to the method of Tsuchida, et al. [Jin To Toseki (Kidney and Dialysis), 31, 363-366 (1991)]. That is, streptozotocin (5 mg/ml, Sigma; hereinafter referred to as STZ) dissolved in 0.05 M citrate buffer was intravenously injected into mice through the tail vein at a dose of 10 ml/kg. On the fourth day after the STZ administration, 30 µl of blood was collected from the tail vein of the mice and the blood glucose was determined using Glutestsensor (Sanwa Kagaku). The animals were divided into three groups based on the blood glucose level. Twelve weeks after the STZ administration, each mouse was put into a metabolic cage and received oral administration of 0.5 ml/10 g of distilled water twice at an interval of 12 hours. Urine was collected for 24 hours, and after measurement of the volume, the urine was centrifuged under cooling (3000 rpm, 4°C) for 5 minutes. The supernatant was analyzed for urinary albumin content using an autoanalyzer (Olympus). A test compound was orally administered once a day for 11 weeks, starting on the fifth day after the STZ administration. […] Statistical significance was evaluated by Aspin-Welch's test for the difference between the control group and the normal group and by Steel's test for the difference between the control group and the test compound-administered group.
compound,measurement,setting,value
"CCOc1cc2nc(N3CCOCC3)nc(N3CCC(n4c(=O)c5cc(C)ccc5n(C)c4=O)CC3)c2cc1OCC.Cl [Compound 10, 3-[1-(6,7-Diethoxy-2-morpholino-4-quinazolinyl)-4-piperidinyl]-1,2,3,4-tetrahydro-1,6-dimethyl-2,4-dioxoquinazoline hydrochloride]",minimum lethal dose (MLD),dd-strain male mice; intraperitoneal administration,> 100 mg/kg
same,minimum lethal dose (MLD),dd-strain male mice; oral administration,> 1000 mg/kg
same,Urinary Albumin Content,Masugi Nephritis,96 ± 7 mg/kg/24 hr
same,Urinary Albumin Content,Diabetic Nephropathy; 1 mg/kg orally once a day for 11 weeks,244 ± 16 mg/kg/24 hr
same,Urinary Albumin Content,Diabetic Nephropathy; 10 mg/kg orally once a day for 11 weeks,200 ± 13 mg/kg/24 hr
